Measured values: US9908899B2 (BIOMARIN PHARMACEUTICAL INC., priority 2011, dated 2018)

Assays:
[1] = Brain penetration studies; settings: Table 4; mice; Cmax(brain)/Cmax(plasma)
Experimental: Test compounds were prepared at either 0.5 mg/ml or 5 mg/ml in 30% hydroxypropyl-β-cyclodextrin, 100 mM sodium acetate pH 5.5, 5% DMSO. C57/BL6/J mice were dosed s.c. at 5 mg/kg or 50 mg/kg, or i.v. at 5 mg/kg. Animals were euthanized at pre-dose, 5, 15, 30 min, 1, 2 and 4 hours post-dose and plasma and brain obtained. Three animals per dose per time points were used. The levels of compound in the plasma and brain were determined by standard LC/MS/MS methods. Brain/plasma ratio (BPR) was calculated as the ratio of the Cmax(brain)/Cmax(plasma).

[2] = system: Human Hepatocytes; experiment: Compound stability in hepatocytes; settings: 5 μM
Experimental: To assess the stability and metabolism of RGFP compounds in hepatocytes. This assay was designed to evaluate the metabolism of RGFP compounds, following their incubation with human, monkey, dog and rat hepatocytes by monitoring either parent drug disappearance or metabolite appearance using HPLC.
Procedure: • Turn on the water-bath heater to 37° C. • Take out the KHB buffer and make sure it is at room temp before use • Prepare 2.5 mM concentration of RGFP compound in DMSO stock • Add 10 μL of above DMSO stock to 2490 μL KHB buffer; final concentration of RGFP compound will be 10 μM • Pre-warm 45 ml InVitro HT Medium to 37° C. in a sterile 50 ml conical tube • Add 1.0 mL Torpedo Antibiotic Mix per 45 mL InVitro HT medium • Transfer 13 mL of warm HT medium with Antibiotic Mix into a 15 mL conical tube. • Carefully remove the hepatocyte vials from liquid nitrogen (liquid phase). • Immediately immerse the vial into a 37° C. water bath. Shake gently until the ice melts entirely. […] Loosen the cell pellet by gently swirling the centrifuge tube • Transfer 100 μL of above solution to a different tube and add 900 μL of KHB buffer to count the cells • Determine the total cell count and the number of viable cells using the Trypan Blue exclusion method • Once you obtain the cell count, multiply the number by 10 (attributing to the dilution factor) • Now add required volume of KHB buffer to the tube containing hepatocytes such that the final count will be 2 million cells/mL • Dispense 50 μL of 2 million cells/ml to a 96 well plate and then add 50 μl of DMSO stock to respective wells (such that, the concentration of RGFP compounds is 5 μM and number of cells are 100000 in each well) • Place the plates on a shaker in a 37° C. incubator with 5% CO2 • Separate plates for each time point are advisable (Time points: 0 h, 1 h, 2 h, and 6 h) • After each time point, add 100 μL of quenching solution. • Quenching solution is an acetonitrile solution containing RGFP531 (10 μM) internal standard, 0.1% formic acid and phenylglyoxol (400 μM). The formic acid and phenylglyoxal is used for the identification and quantification of OPD as mentioned above. • Pipette up and down a few times to ensure a complete stop of reaction • Transfer all the solution into a 1.5 ml tube, vortex thoroughly, and centrifuge at 14000 RPM at 4° C. for 5 minutes to precipitate cell debris
Transfer the 150 μL of supernatant to vials for analysis using HPLC

[3] = target: HDAC1 (Homo sapiens (Human), UniProt Q13547); experiment: HDAC activity inhibition assay, HDAC1; assay type: biochemical
Experimental: (§1) The HDAC activity inhibition assay was performed as follows to determine the ability of a test compound to inhibit HDAC enzymatic activity. […] Following pre-incubation, Fluor-de-Lys™ substrate (Enzo Life Sciences, Plymouth Meeting, Pa., BML-KI104-0050) was added to a final concentration of 10 μM and plates were further incubated for 30 minutes at room temperature. […] IC50 values were calculated by using a sigmoidal dose-response (variable slope) equation in GraphPad Prism® 5 for Windows (GraphPad Software, La Jolla, Calif.).

[4] = target: HDAC3/NcoR2 (Homo sapiens (Human), UniProt O15379); experiment: HDAC activity inhibition assay, HDAC3/NcoR2; assay type: biochemical
Experimental: as §1

[5] = target: HDAC2 (Homo sapiens (Human), UniProt Q92769); experiment: HDAC activity inhibition assay, HDAC2; assay type: biochemical
Experimental: as §1

[6] = system: Frataxin (FXN) mRNA; experiment: Effect of HDAC inhibitors on frataxin (FXN) mRNA expression in Friedreich's ataxia patient primary lymphocytes; assay type: cell-based, human; settings: Table 4; concentration for 2-fold increase in FXN mRNA
Experimental: Blood is collected from Friedreich's ataxia patient donors into tubes containing the anti-coagulant EDTA. Primary lymphocytes are isolated using Lymphocyte Separation Medium (MP Biomedicals, Solon, Ohio) following the manufacturer's instructions and including a few modifications made by Repligen. After a final wash in Phosphate Buffered Saline (PBS), the cells are distributed into a 6-well cell culture plate in cell growth medium. The test HDAC inhibitor compound is added to cells in a dose escalating manner (usually concentrations range from 1 to 10 μM) and 0.1% DMSO is added to one well of cells as a no treatment control. Cells are incubated for 48 hours at 37° C. in a CO2 incubator; cell counts are taken using a Countess automated cell counter (Invitrogen, Carlsbad, Calif.). Equivalent numbers of cells for all treatment conditions are pelleted by centrifugation and resuspended in cell lysis buffer. Total RNA is isolated from approximately 1×10^6 primary lymphocytes using a RNeasy Mini Kit (Qiagen, Valencia, Calif.), following the manufacturer's instructions and including an optional on-column DNAse digestion step. The isolation is performed either manually or using the QIAcube (Qiagen, Valencia, Calif.), an instrument that automates much of the isolation procedure. The RNA yield and concentration is determined using a Nanodrop spectrophotometer (Thermo Fisher Scientific, Waltham, Mass.) and depending on the RNA concentration, one of two protocols is used to measure frataxin (FXN) transcript levels. For samples containing at least 15 ng/μL RNA a TaqMan® Probe-based (Applied Biosystems, Carlsbad, Calif.) qRT-PCR method is used, while for samples containing less than 15 ng/μL RNA a SYBR Green qRT-PCR method is used. In the TaqMan® Probe-based method specific primer/probe pairs for FXN and GAPDH are multiplexed in each reaction. In the SYBR Green method FXN and GAPDH are amplified in separate reactions. In both methods each RNA sample is analyzed in triplicate (preferably) or duplicate (minimally) using a one-step qRT-PCR master mix that contains all the components necessary for cDNA synthesis and PCR amplification in a single, continuous reaction. After cycling is complete, MxPro Software (Agilent Technologies, Santa Clara, Calif.) is used to analyze the collected data and determine the relative amount of FXN mRNA compared to a control sample. An adaptive baseline method is used for baseline correction whereby an algorithm automatically selects the appropriate baseline cycles for each well and each dye. An amplification-based threshold is set and the corresponding threshold cycle, or Ct, is obtained for calculating target concentration. The Ct values for each target gene (FXN and GAPDH) for each replicate series are averaged. The amount of FXN (or GAPDH) in the sample is determined as the relative quantity to the calibrator where the calibrator sample is assigned an arbitrary quantity of 1. The following equation is used: Relative quantity to the calibrator=2^−ΔCt where ΔCt=(Ct_gene)unknown−(Ct_gene)calibrator, gene is either FXN or GAPDH, calibrator is a DMSO control sample, and unknown is a HDACi treated sample. The relative quantity of FXN is normalized to cell number and RNA input. Data is reported in Tables 2 and 4 below, where the concentration required for a 2-fold increase in FXN mRNA is reported as A if less than 5 μM, B if between 5 and 10 μM, C if greater than 10 μM.

[7] = system: GM 15850(lymphoblastoid cells line) cells; experiment: In-cell deacetylase inhibition assay (DAC assay); assay type: cell-based; settings: Homo sapiens, GM15850; GM 15850 cells, 4 h incubation; read-out: 850 DAC (in-cell deacetylase inhibition IC50)
Experimental: Compound dilutions were made in 100% DMSO followed by parallel dilution in media with 2% DMSO. 10 μl of the compound dilutions were added to the cells to achieve the desired concentrations. The final concentration of DMSO in each well was 0.2%. The cells were incubated for 4 h at 37° C. with 5% CO2. After incubation, the cells were centrifuged down and the supernatant was removed. […] The reaction was stopped after 30 min incubation by addition of 50 μL developer (6 mg/mL trypsin in HDAC assay buffer). The reaction was allowed to develop for 30 min at room temperature and the fluorescence signal was detected using a fluorometer (Spectramax M2, Molecular Devices, Sunnyvale, Calif.) with excitation and emission wavelengths of 360 nm and 470 nm respectively. The data was fitted to a sigmoidal dose response equation with variable slope in GraphPad Prism 5.0 (GraphPad Software, La Jolla, Calif.) to determine IC50. Bottom and top of the curve were fixed to the average fluorescence response of control wells with no cells and cells but no compound respectively.

[8] = Table 1, 2 hours pre-incubation

HDAC3/NcoR2, sequence (O15379 whole entry): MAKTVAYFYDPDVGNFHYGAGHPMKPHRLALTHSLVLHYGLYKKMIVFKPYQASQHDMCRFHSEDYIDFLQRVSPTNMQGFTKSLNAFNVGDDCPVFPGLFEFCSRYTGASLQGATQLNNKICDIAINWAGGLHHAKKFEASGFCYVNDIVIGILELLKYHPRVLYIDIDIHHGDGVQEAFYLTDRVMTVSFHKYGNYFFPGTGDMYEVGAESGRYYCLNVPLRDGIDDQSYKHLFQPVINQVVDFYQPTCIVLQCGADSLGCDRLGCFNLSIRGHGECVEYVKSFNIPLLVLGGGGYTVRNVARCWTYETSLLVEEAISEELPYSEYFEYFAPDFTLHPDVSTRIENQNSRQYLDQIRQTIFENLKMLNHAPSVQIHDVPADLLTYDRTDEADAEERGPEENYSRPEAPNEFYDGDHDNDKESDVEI
HDAC3/NcoR2, sequence (Q9Y618 395-489 partner): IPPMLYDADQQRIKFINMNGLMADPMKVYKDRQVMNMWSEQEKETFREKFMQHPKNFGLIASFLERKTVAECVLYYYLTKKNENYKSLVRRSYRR
HDAC1, sequence (Q13547 whole entry): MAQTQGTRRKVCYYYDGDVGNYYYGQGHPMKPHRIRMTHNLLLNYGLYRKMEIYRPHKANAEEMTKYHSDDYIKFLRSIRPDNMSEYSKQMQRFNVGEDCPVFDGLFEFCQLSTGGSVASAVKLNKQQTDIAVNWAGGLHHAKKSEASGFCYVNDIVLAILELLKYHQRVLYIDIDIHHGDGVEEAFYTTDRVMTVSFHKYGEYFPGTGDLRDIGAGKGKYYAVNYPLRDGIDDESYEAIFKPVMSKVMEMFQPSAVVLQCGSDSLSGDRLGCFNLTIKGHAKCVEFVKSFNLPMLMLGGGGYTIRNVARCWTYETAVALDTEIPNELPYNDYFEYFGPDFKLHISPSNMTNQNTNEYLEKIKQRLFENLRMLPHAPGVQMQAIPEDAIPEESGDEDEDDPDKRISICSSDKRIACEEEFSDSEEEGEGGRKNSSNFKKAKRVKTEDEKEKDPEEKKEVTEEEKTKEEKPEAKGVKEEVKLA
HDAC2, sequence (Q92769 whole entry): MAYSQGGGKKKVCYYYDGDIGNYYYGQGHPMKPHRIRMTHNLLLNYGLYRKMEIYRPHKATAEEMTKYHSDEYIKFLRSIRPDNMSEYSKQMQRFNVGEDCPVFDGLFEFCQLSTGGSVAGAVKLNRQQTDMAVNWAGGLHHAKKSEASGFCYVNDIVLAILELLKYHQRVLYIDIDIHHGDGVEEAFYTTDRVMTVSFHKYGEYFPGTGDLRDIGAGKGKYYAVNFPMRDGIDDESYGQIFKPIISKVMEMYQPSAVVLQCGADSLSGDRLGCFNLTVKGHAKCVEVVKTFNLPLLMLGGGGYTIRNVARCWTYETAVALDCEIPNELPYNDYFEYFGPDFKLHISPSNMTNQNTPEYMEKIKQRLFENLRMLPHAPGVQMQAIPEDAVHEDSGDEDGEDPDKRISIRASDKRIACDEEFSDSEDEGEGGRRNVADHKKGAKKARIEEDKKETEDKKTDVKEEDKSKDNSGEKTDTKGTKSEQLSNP

SMILES	BPR [1]	% left 6 h Hum [2]	IC50 ([3]; Table 4) [nM]	IC50 ([4]; Table 4) [nM]	IC50 ([5]; Table 4) [nM]	F × n > 2X (uM) [6]	IC50 [3, 8] [nM]	IC50 [4, 8] [nM]	IC50 [5, 8] [nM]	IC50 [7] [nM]
Nc1ccccc1NC(=O)c1ccc(C=C2CN(CC3CC3)C2)c(Cl)c1 [F10]	A (A is greater than 1)	B (50%>B>30%)								
Nc1ccccc1NC(=O)c1ccc(C=C2COC2)c(Cl)c1 [F11]	A (A is greater than 1)	C (30%>C>10%)	< 1000	< 1000						
Nc1ccccc1NC(=O)c1ccc(C=C2CN(CC3CC3)C2)cc1 [F12]	A (A is greater than 1)	A (50%<A)	< 1000	< 1000	< 1000	A (A if less than 5 μM)				
Nc1ccccc1NC(=O)c1ccc(C=C2CCN(CC3CC3)CC2)cc1 [F13]	A (A is greater than 1)	B (50%>B>30%)	< 1000	< 1000	< 1000					
CC(C)(C)CN1CCC(=Cc2ccc(C(=O)Nc3ccccc3N)cc2)CC1 [F14]	A (A is greater than 1)	C (30%>C>10%)	< 1000	< 1000	< 1000	A (A if less than 5 μM)				
CC(C)(O)CN1CCC(=Cc2ccc(C(=O)Nc3ccccc3N)cc2)CC1 [F15]	A (A is greater than 1)	A (50%<A)	< 1000	< 1000	< 1000	A (A if less than 5 μM)				
Cc1cccc(CN2CC(=Cc3ccc(C(=O)Nc4ccccc4N)cc3)C2)n1 [F16]		C (30%>C>10%)	< 1000	< 1000	< 1000					
Nc1ccccc1NC(=O)c1ccc(C=C2CN(Cc3ccccc3)C2)cc1 [F17]		C (30%>C>10%)	< 1000	< 1000	< 1000					
Nc1ccccc1NC(=O)c1ccc(C=C2CN(Cc3cccnc3)C2)cc1 [F18]		C (30%>C>10%)	< 1000	< 1000	< 1000					
CC(C)(O)CN1CC(=Cc2ccc(C(=O)Nc3ccccc3N)cc2)C1 [F19]		A (50%<A)	< 1000	< 1000	1000 to 5000					
Nc1cc(F)ccc1NC(=O)c1ccc(C=C2CN(CC3CC3)C2)cc1 [F20]		A (50%<A)	1000 to 5000	< 1000	1000 to 5000					
CN1CCC(Cn2cc(/C=C/C(=O)Nc3ccccc3N)cn2)CC1 [G1, (E)-N-(2-aminophenyl)-3-(1-((1-methylpiperidin-4-yl)methyl)-1H-pyrazol-4-yl)acrylamide]							1000 to 5000	< 1000	1000 to 5000	1000 to 5000
